Assays:
rat [1] = settings: Subchronic oral toxicity in rodents, wistar, Feed, dose end: 90 day, group: systemic
dog [2] = settings: Chronic toxicity; beagle; Oral; Feed; dose end: 12 month; group: systemic; systemic / in life observation / body weight / body weight gain + systemic / in life observation / food consumption / food consumption + …
rat [3] = settings: Prenatal developmental toxicity study, other, Oral, Gavage/Intubation, dose end: 15 GD
dog [4] = settings: Subchronic oral toxicity in nonrodent, beagle, Feed, dose end: 3 month, group: systemic, systemic / in life observation / body weight / body weight gain + systemic / in life observation / food consumption / food consumption
rat [5] = settings: Prenatal developmental toxicity study, wistar, Oral, [Not Specified], dose end: 20 GD
mouse [6] = settings: Carcinogenicity, other, Oral, Feed, dose end: 18 month, group: systemic
rabbit = settings: Prenatal developmental toxicity study, Russian (Chbb:HM, SPF), Oral, Gavage/Intubation, dose end: 19 GD
rat [7] = settings: Combined chronic toxicity/carcinogenicity, other, Oral, Feed, dose end: 24 month, group: systemic
rat [8] = settings: Subchronic oral toxicity in rodents, other, Feed, dose end: 90 day, group: systemic
mouse [9] = settings: Subchronic oral toxicity in rodents, other, Feed, dose end: 90 day, group: systemic
rat [10] = settings: Multigenerational reproductive toxicity study, other, Oral, Feed, dose end: 2 generation
rat [11] = settings: Prenatal developmental toxicity study, long evans, Oral, Gavage/Intubation, dose end: 15 GD
mouse [12] = settings: Carcinogenicity, b6c3f1, Oral, Water, dose end: 104 week, group: systemic
rat [13] = settings: Subchronic oral toxicity in rodents, sprague dawley, Water, dose end: 90 day, group: systemic
rat [14] = settings: Sub-acute repeat dose toxicity; sprague dawley; Oral; Water; dose end: 14 day; group: systemic; systemic / in life observation / body weight / body weight + systemic / in life observation / food consumption / food consumption + systemic…
[15] = systemic / clinical chemistry / calcium / calcium
[16] = systemic / in life observation / body weight / body weight + systemic / in life observation / body weight / body weight gain + systemic / …
[17] = group: developmental, developmental / developmental malformation / bone / incomplete ossification + developmental / developmental malformation / bone / unossified…
[18] = group: maternal, systemic / in life observation / body weight / body weight + systemic / in life observation / body weight / body weight gain + systemic / in…
[19] = group: developmental, developmental / developmental malformation / bone / unossified
[20] = group: developmental, developmental / developmental malformation / bone / unossified + developmental / developmental malformation / bone / incomplete ossification…
[21] = group: maternal, systemic / in life observation / clinical signs / piloerection + systemic / in life observation / clinical signs / salivation + systemic / …
[22] = systemic / pathology microscopic / pancreas / hyperplasia
[23] = systemic / pathology microscopic / pancreas / hyperplasia + systemic / in life observation / body weight / body weight + systemic / in life …
[24] = group: developmental, developmental / developmental malformation / bone / full supernumerary
[25] = group: maternal, systemic / in life observation / body weight / body weight gain
[26] = systemic / pathology microscopic / liver / dilatation + systemic / clinical chemistry / urea nitrogen / urea + systemic / in life …
[27] = systemic / clinical chemistry / cholesterol / cholesterol + systemic / clinical chemistry / lipids / phospholipids
[28] = systemic / pathology microscopic / liver / necrosis
[29] = systemic / pathology microscopic / liver / necrosis + systemic / hematology / leukocyte (wbc) count differential / leukocyte (wbc) + …
[30] = group: offspring, systemic / in life observation / body weight / offspring (pup) weight
[31] = group: parental, systemic / organ weight / kidney / relative to body weight
[32] = group: developmental, developmental / developmental malformation / bone / [other] + developmental / developmental malformation / general / crown-rump length + …
[33] = group: developmental, developmental / developmental malformation / general / crown-rump length + developmental / developmental malformation / all gross anomalies…
[34] = group: maternal, reproductive / reproductive performance / implantations / implantations + reproductive / reproductive performance / postimplantation loss / …
[35] = group: maternal, systemic / organ weight / kidney / absolute + systemic / organ weight / spleen / absolute
[36] = systemic / pathology microscopic / liver / adenoma + systemic / pathology microscopic / liver / adenoma/carcinoma combined + systemic / …
[37] = systemic / pathology microscopic / liver / focal cellular change
[38] = systemic / in life observation / water consumption / water consumption
[39] = systemic / in life observation / water consumption / water consumption + systemic / in life observation / body weight / body weight + …

## Cc1cc(C2CC2)nc(Nc2ccccc2)n1 [Cyprodinil]
Rat [1]; [15]
  LEL: 3.52 mg/kg/day
  NEL: < 3.52 mg/kg/day
Rat [1]; [16]
  LOAEL: 131 mg/kg/day
  NOAEL: 17.8 mg/kg/day
Dog [2]
  LEL: 446 mg/kg/day
  LOAEL: 446 mg/kg/day
  NEL: 68 mg/kg/day
  NOAEL: 68 mg/kg/day
Rat [3]; [17]
  LEL: 1000 mg/kg/day
  LOAEL: 1000 mg/kg/day
  NEL: 200 mg/kg/day
  NOAEL: 200 mg/kg/day
Rat [3]; [18]
  LEL: 1000 mg/kg/day
  LOAEL: 1000 mg/kg/day
  NEL: 200 mg/kg/day
  NOAEL: 200 mg/kg/day
Dog [4]
  LEL: 560 mg/kg/day
  LOAEL: 560 mg/kg/day
  NEL: 210 mg/kg/day
  NOAEL: 210 mg/kg/day
Rat [5]; [19]
  LEL: 200 mg/kg/day
  LOAEL: 200 mg/kg/day
Rat [5]; [20]
  NEL: 20 mg/kg/day
  NOAEL: 20 mg/kg/day
Rat [5]; [21]
  LEL: 200 mg/kg/day
  LOAEL: 200 mg/kg/day
  NEL: 20 mg/kg/day
  NOAEL: 20 mg/kg/day
Mouse [6]; [22]
  LEL: 212 mg/kg/day
  LOAEL: 212 mg/kg/day
Mouse [6]; [23]
  NEL: 16.1 mg/kg/day
  NOAEL: 16.1 mg/kg/day
rabbit; [24]
  LEL: 400 mg/kg/day
  LOAEL: 400 mg/kg/day
  NEL: 150 mg/kg/day
  NOAEL: 150 mg/kg/day
rabbit; [25]
  LEL: 400 mg/kg/day
  LOAEL: 400 mg/kg/day
  NEL: 150 mg/kg/day
  NOAEL: 150 mg/kg/day
Rat [7]; systemic / pathology microscopic / liver / dilatation
  LOAEL: 35.6 mg/kg/day
Rat [7]; systemic / pathology microscopic / liver / dilatation + systemic / clinical chemistry / urea nitrogen / urea
  LEL: 35.6 mg/kg/day
Rat [7]; [26]
  NEL: 2.7 mg/kg/day
  NOAEL: 2.7 mg/kg/day
Rat [8]; [27]
  LEL: 3.24 mg/kg/day
  NEL: < 3.24 mg/kg/day
Rat [8]; systemic / pathology microscopic / kidney / lesion(s) (nos)
  LOAEL: 18.9 mg/kg/day
Rat [8]; systemic / pathology microscopic / kidney / lesion(s) (nos) + systemic / clinical chemistry / albumin / albumin + systemic / clinical …
  NOAEL: 3.14 mg/kg/day
Mouse [9]; [28]
  LEL: 257 mg/kg/day
  LOAEL: 257 mg/kg/day
Mouse [9]; [29]
  NEL: 73.3 mg/kg/day
  NOAEL: 73.3 mg/kg/day
Rat [10]; [30]
  LEL: 332 mg/kg/day
  LOAEL: 332 mg/kg/day
  NEL: 77.2 mg/kg/day
  NOAEL: 77.2 mg/kg/day
Rat [10]; group: parental, systemic / in life observation / body weight / body weight
  LOAEL: 326 mg/kg/day
Rat [10]; group: parental, systemic / in life observation / body weight / body weight + systemic / organ weight / heart / relative to body weight + systemic / organ …
  NOAEL: 81.3 mg/kg/day
Rat [10]; [31]
  LEL: 0.7 mg/kg/day
  NEL: < 0.7 mg/kg/day

## O=C(O)C(Cl)(Cl)Cl [Trichloroacetic acid]
Rat [11]; [32]
  LOAEL: > 1800 mg/kg/day
  NOAEL: ≥ 1800 mg/kg/day
Rat [11]; [33]
  LEL: 330 mg/kg/day
  NEL: < 330 mg/kg/day
Rat [11]; [34]
  LOAEL: > 1800 mg/kg/day
  NOAEL: ≥ 1800 mg/kg/day
Rat [11]; [35]
  LEL: 330 mg/kg/day
  NEL: < 330 mg/kg/day
Mouse [12]; [36]
  LOAEL: > 572 mg/kg/day
  NOAEL: ≥ 572 mg/kg/day
Mouse [12]; [37]
  LEL: 6 mg/kg/day
  NEL: < 6 mg/kg/day
Rat [13]; [38]
  LEL: 4.1 mg/kg/day
  NEL: < 4.1 mg/kg/day
Rat [13]; [39]
  LOAEL: > 355 mg/kg/day
  NOAEL: ≥ 355 mg/kg/day
Rat [14]
  LEL: 119 mg/kg/day
  LOAEL: > 119 mg/kg/day
  NEL: 31.6 mg/kg/day
  NOAEL: ≥ 119 mg/kg/day

From EPA's ToxRefDB 2
